The record followed here is patent US9895363B2, “Methods for modulating function of proliferating cell nuclear antigen (PCNA) and treating cancer with PCNA-targeting compounds” (University of Cincinnati, priority 2010, dated 2018).

Like-named read-outs stand apart in the source and are kept apart here.

In one assay the test system is Tumor Cells. Briefly: Growth inhibition, mean over tumor cell lines. Format: cell-based. The following applies: mean over all tumor cell lines; read-out: IC50 Values, Tumor Cells, Mean ± SD. Here is the method: (§1) Growth inhibitory effects of PCNA-I1 and PCNA-I2 were assessed in human cancer cell lines, mouse cancer cell lines, immortalized mouse cell lines, and human primary cell lines. Specifically, growth inhibitory effects of PCNA-I1 and PCNA-I2 were assessed using MTT staining in the following cells lines: 1) human cancer cell lines including LNCaP (androgen receptor […]), 22Rv1, DU-145, LAPC-4, and PC-3 (androgen receptor […]) prostate cancer cells; MCF-7 and T47D breast cancer cells; A375 and MDA-MB435 melanoma cells; 2) mouse cancer cell lines including TRAMP-C2RE3 prostate cancer cells, B16 and K1735 melanoma cells, UV2237 fibrosarcoma cells, and CT-26 colon cancer cells; 3) immortalized mouse lung cell lines and mouse endothelial cell lines; and 4) primary human cell lines including umbilical endothelial cells (HUVEC, PromoCell, Heidelberg, Germany), primary bone marrow mesenchymal stem cells (HuMSC, PromoCell), primary human mammary epithelial cells (HuBrEC, Lonza, Walkersville, Md.), primary human prostate epithelial cells (HuPrEC, Lonza), and primary mouse spleen lymphocytes (isolated in this laboratory), and primary mouse bone marrow stromal cells (isolated in this laboratory). […]
(§2) IC50 values were derived from growth inhibition curves. […] Inhibition of cell growth was calculated using the formula: growth inhibition (%)=(1−A570 of treated/A570 of control)×100. […]

For assay [1], the system named is LNCaP cells. Briefly: FACS analysis, LNCaP. It counts as cell-based, Human. The following applies: particularly at 10 μM; FIG. 16. Here is the method: Fluorescence-activated cell sorting (FACS) analysis was performed on both PC-3 cells and LNCaP cells using PCNA-I1. Specifically, cells were treated with 1 or 10 μM PCNA-I1 and sampled for the flow cytometry analysis at 24 H, 48 H, and 72 H. Expression of DNA damage and apoptosis-related proteins in PC-3 cells and LNCaP cells was also determined. Cisplatin, a well-known drug that induces DNA damage and apoptosis, was included in the experiment. LNCaP cells were treated for 6 H, 12 H, or 18 H with 10 μM PCNA-I1, 10 μM cisplatin, or both.
(In general: Flow cytometry measures light scatter and fluorescence of single cells or particles in a stream.)

Assay [2] concerns Prostate Endothelial cells (Mu-Pr-Endo). Briefly: Growth inhibition, mouse prostate endothelial cells. To be noted: Endothelial cell. It counts as cell-based. How it is done: as §1, §2
The next assay deals with K1735 melanoma cells. The assay is described as follows: Growth inhibition by MTT staining, K1735. Format: cell-based. To be noted: 96 h, Mouse, treated four days. How it is done: as §1, §2
Assay [3] relates to TRAMP-C2RE3 prostate cancer cells. The assay is described as follows: Growth inhibition by MTT staining, TRAMP-C2RE3. It counts as cell-based. The following applies: 96 h, Mouse, Prostate tumor cells, treated four days. How it is done: as §1, §2
Assay [4] concerns LNCaP cells. Briefly: LNCaP tumor model in male nude mice. It counts as in vivo. How it is done: The therapeutic effects of PCNA-I1 were evaluated in LNCaP cells and 22Rv1 tumor models. LNCaP or 22Rv1 cells (1-2×10^6 cells in gelfoam) were implanted into the subcutis of male nude mice. From four to five days later, tumor-bearing mice were intraperitoneally injected with 10 mg/kg or 50 mg/kg of PCNA-I1. The therapy was continued at three times/week until termination of experiments. Control and treated tumor-bearing mice were monitored daily. Mouse body weight was recorded for toxicity evaluation twice a week and tumor size was measured using calipers twice a week. The experiments were terminated when mice in control groups were moribund. Additionally, to further evaluate potential liver and renal toxicity of PCNA-I1, the blood of tumor-bearing mice were sampled after the treatment with PCNA-I1 for 8 weeks.

A further assay concerns the target T1, PCNA (Homo sapiens, UniProt P12004).
T1 construct: endogenous PCNA was knocked down with transfection of PCNA-specific siRNA; endogenous in cells; host or cells: PC-3
The assay is described as follows: PCNA stability and degradation (immunoblot). To be noted: PC-3, 0.5 μM, up to 16 H, with or without CHX and MG132; FIG. 14. Format: cell-based. Here is the method:
PCNA is a very stable protein with a half life of 20 H in replicating cells. The effect of PCNA-I1 on PCNA stability and degradation was investigated. Specifically, PC-3 cells were treated for various times up to 24 H with protein synthesis inhibitor cycloheximide (CHX) to block de novo protein synthesis. Cells were lyzed in buffer A as discussed above and analyzed by immunoblotting. Additionally, because PCNA is subject to ubiquitination regulation, the effect of PCNA-I1 on and deregulation of PCNA through the proteosome-mediated system was also investigated. Specifically, PC-3 cells were treated for 16 H with 0.5 μM PCNA-I1 in the absence or presence of 5 μg/mL of CHX and/or 10 μM of MG132, a well-documented proteosome inhibitor.

Assay [5] relates to 22Rv1 prostate cancer cells. Briefly: Growth inhibition by MTT staining, 22Rv1. It counts as cell-based. To be noted: 22Rv1, 96 h, Human tumor cells, treated four days. Here is the method:
as §1, §2

T1 sequence (P12004 whole entry): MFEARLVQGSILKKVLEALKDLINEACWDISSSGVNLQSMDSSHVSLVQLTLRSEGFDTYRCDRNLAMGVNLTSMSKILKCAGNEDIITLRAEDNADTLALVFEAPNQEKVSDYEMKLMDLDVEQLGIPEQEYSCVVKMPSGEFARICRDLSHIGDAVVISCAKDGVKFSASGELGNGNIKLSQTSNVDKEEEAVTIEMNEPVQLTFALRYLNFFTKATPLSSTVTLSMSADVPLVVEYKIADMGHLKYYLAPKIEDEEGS

Take `Cc1ccsc1C(=O)N/N=C/c1ccc2ccccc2c1O` [PCNA-I1]: the IC50 (commonly the point on the concentration scale where inhibition reaches its midpoint) with Tumor Cells worked out at 190 ± 90 nM; in assay [2] (Mouse, Blood Vessel, normal cells, read-out: IC50 Values, Prostate Endothelial), 680 nM; in assay [2] (Mus musculus, FIG. 2(C), read-out: IC50, Mu-Pr-Endo), 677 nM; in the assay on K1735 melanoma cells it was 50 nM; in assay [3], 200 nM; in assay [5] it was 180 nM. Also, in the assay on LNCaP cells [1], the “Apoptosis, LNCaP (sub-G1 population)” value is “induced significant apoptosis”. Moreover, in the assay with LNCaP cells [4] (50 mg/kg i.p., three times/week), the “Tumor eradication, LNCaP model” value is “eradication of LNCaP tumors in some mice”. In addition, the “Tumor growth, LNCaP model” value with LNCaP cells [4] (10 or 50 mg/kg i.p., three times/week) is “retarded tumor growth”. The “PCNA expression in tumor (immunohistochemistry)” value in the assay with LNCaP cells [4] (LNCaP tumor, 10 mg/kg three times/week, FIG. 22) is given as “reduced PCNA expression”. For the same compound, on PCNA, the PCNA degradation result is reported as “did not alter PCNA degradation”.
